Experimental data from patent publication US7666414B2, “Methods for treating prostate cancer using modified antibodies to prostate-specific membrane antigen” (Cornell Research Foundation, Inc., priority 2001, dated 2010).

What was measured:
[1] = molecular target: prostate specific membrane antigen (Homo sapiens, UniProt Q04609); experiment: Competitive binding sites on PSMA; details: relative to J591, J533, E99 site
From the text: To kill or ablate normal, benign hyperplastic, and cancerous prostate epithelial cells, a first antibody, e.g., a modified antibody, can be conjugated with a prodrug which is activated only when in close proximity with a prodrug activator. The prodrug activator is conjugated with a second antibody, e.g., a second modified antibody according to the present invention, preferably one that binds to a non-competing site on the prostate specific membrane antigen molecule. Whether two modified antibodies bind to competing or non-competing binding sites can be determined by conventional competitive binding assays. […] Monoclonal antibody J415, on the other hand, binds to a binding site that is non-competing with the site to which J591, J533, and E99 bind. Thus, for example, the first modified antibody can be one of J591, J533, and E99, and the second modified antibody can be J415. Alternatively, the first modified antibody can be J415, and the second modified antibody can be one of J591, J533, and E99. Drug-prodrug pairs suitable for use in the practice of the present invention are described in Blakely et al., “ZD2767, an Improved System for Antibody-directed Enzyme Prodrug Therapy That Results in Tumor Regressions in Colorectal Tumor Xenografts,” (1996) Cancer Research, 56:3287-3292, which is hereby incorporated by reference.

LNCaP cells = experiment: Immunoreactivity by the method of Lindmo; parameters: species or system human; details: 111In labeled, binding extrapolated to infinite antigen excess
Method: The solutions were incubated at 4° C. for 60 minutes prior to being isolated (by centrifugation) and washed with ice cold PBS. The membranes were then counted in a gamma counter with standards representing the total radioactivity added. The data was plotted using the Lindmo method as the reciprocal of the substrate concentration α-axis) against the reciprocal of the fraction bound (y-axis). The data was then fitted according to a least squares linear regression method (Sigma Plot) and the y intercept taken as the reciprocal of the immunoreactivity. A similar method using membranes derived from LNCaP cells, and subsequent centrifugation isolation of the membranes, gave similar results. The results gave an average immunoreactivity of 72% (see Table 11).
Briefly five test solutions were prepared (in duplicate) containing 10,000 cpm of ^111Indium labeled-DOTA-deJ591 and various amounts of LNCaP cells or cell membranes, in a total test volume of 250 μL of 0.2% BSA 10 mM HEPES. The solutions were incubated at 4° C. for 60 minutes prior to being isolated (by centrifugation) and washed with ice cold PBS. The membranes were then counted in a gamma counter with standards representing the total radioactivity added. The data was plotted using the Lindmo method as the reciprocal of the substrate concentration α-axis) against the reciprocal of the fraction bound (y-axis). The data was then fitted according to a least squares linear regression method (Sigma Plot) and the y intercept used as the reciprocal of the immunoreactivity. The target for immunoreactivity was not less than 75%.

prostate tissue = experiment: Immunohistochemistry of DOTA conjugated deJ591
Method: Immunohistochemistry was performed on the DOTA conjugated, partially purified, bulk intermediate deJ591.

[2] = system: vascular endothelium of solid tumors; experiment: Phase I trial of 111In-DOTA-deJ591 in refractory solid tumor malignancies; format: in vivo
From the text: Eligible patients were those with refractory solid tumor malignancies whose tumor types are known to express PSMA on the neovasculature.
Patients the participated in the study included eight renal cell cancer patients, four bladder cancer patients, two colon cancer patients, and one pancreas cancer patient.

[3] = system: hormone refractory prostate cancer; format: in vivo, human
From the text: All patients had rising PSA levels on three consecutive measurements.

[4] = system: recurrent, progressing prostate cancer; experiment: Phase I trial of 111In-DOTA-deJ591, four weekly doses; format: in vivo, human
Method: Patients with recurrent, progressing prostate cancer received four weekly doses of ^111In-DOTA-deJ591. Doses were escalated in cohorts of three patients and ranged from 62.5-500 mg/m2 (total). […] After the first dose, patients were imaged on the day of injection (day 0) and days 1, 2, 4 and 7.
Serum PK, immune reaction and toxicity were evaluated after each dose for a minimum of 12 weeks.

[5] = four weekly doses, 62.5-500 mg/m2 total

Chain of prostate specific membrane antigen (Q04609 whole entry): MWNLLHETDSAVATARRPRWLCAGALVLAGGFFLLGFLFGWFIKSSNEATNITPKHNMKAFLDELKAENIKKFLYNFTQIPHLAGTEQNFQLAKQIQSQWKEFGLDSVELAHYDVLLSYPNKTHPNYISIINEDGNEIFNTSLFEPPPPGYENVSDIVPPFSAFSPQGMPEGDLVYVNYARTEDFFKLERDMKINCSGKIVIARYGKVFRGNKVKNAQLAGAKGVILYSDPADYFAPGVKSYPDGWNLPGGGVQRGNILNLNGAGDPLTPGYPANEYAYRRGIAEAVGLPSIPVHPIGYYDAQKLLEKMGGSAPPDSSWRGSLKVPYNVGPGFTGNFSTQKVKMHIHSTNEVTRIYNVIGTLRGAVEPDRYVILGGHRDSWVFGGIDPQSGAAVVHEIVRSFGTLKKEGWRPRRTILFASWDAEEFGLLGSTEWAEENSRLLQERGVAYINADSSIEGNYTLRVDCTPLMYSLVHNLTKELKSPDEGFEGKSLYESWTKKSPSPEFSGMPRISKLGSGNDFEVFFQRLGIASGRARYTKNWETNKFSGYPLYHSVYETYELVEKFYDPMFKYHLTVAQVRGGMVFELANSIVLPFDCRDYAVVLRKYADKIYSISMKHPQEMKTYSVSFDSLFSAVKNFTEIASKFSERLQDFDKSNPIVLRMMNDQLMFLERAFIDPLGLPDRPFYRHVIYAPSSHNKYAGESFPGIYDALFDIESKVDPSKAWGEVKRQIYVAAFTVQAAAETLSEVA

Substance	binding site on the prostate specific membrane antigen molecule [1]	Immunoreactivity (LNCaP cells) [%]	Immunoreactivity (LNCaP cells; listed as Lot 243101) [%]	Immunoreactivity (LNCaP cells; listed as Lot BIOV983.2-2) [%]	Immunohistochemistry specificity and reactivity (prostate tissue)	tumor targeting ([2]; 7 renal cell, 2 bladder, 1 colon cancer)	decline in CEA ([2]; a colon cancer patient) [%]	false negative imaging ([2]; in vivo)	objective responses ([2]; in vivo)	false negative imaging in patients who had imagable disease ([3]; four of twenty-two) [%]	Plasma clearance (T1/2) ([3]; human, in vivo, 20 mg) [h]	tumor targeting in patients who had imagable disease ([3]; sixteen of twenty-two, 20 mg, 185 MBq) [%]	immune reaction to the antibody [4, 5]	toxicity or side effects [4, 5]	mAb targeting to bony sites ([4]; ten patients with positive bone scans)	mAb targeting to soft tissue disease ([4]; three patients with soft tissue disease on CT)
J591: murine monoclonal antibody to the extracellular domain of human PSMA, hybridoma ATCC HB-12126	bind to competing binding sites	–	–	–	–	–	–	–	–	–	–	–	–	–	–	–
DOTA conjugated deJ591	–	95	95	72	specific to prostate tissue and the reactivity was equivalent to the naked deJ591 antibody	–	–	–	–	–	–	–	–	–	–	–
^111In-DOTA-deJ591	–	72	–	–	–	ten of the fifteen patients	50	five of the fifteen patients	No objective responses occurred	18	34 ± 5	72.7	None of the patients developed an immune reaction to the antibody	Neither this latter patient nor the remaining thirteen patients experienced any toxicity or side effects	all ten demonstrated excellent mAb targeting to bony sites	two demonstrated mAb targeting to these sites
